Assay results from US20140378408A1, “NUCLEOSIDE 5'-PHOSPHOROTHIOATE ANALOGUES AND USES THEREOF” (BAR-ILAN UNIVERSITY, an Israeli University, priority 2012, published 2014).
Like-named read-outs stand apart in the source and are kept apart here.

Assays:
cortical neurons = assay: Neuroprotection of cultured cortical neurons exposed to FeSO4 or FeSO4/H2O2; format: cell-based; conditions: for protection: co-application with FeSO4 3 μM
Method: FIGS. 10A-10B show the neuroprotective effect of ATP-γ-S and GDP-β-S (0.2-200 μM, t=24 h) as evaluated by MTT production in cortical neurons exposed for 24 h to either FeSO4 at final concentration of 3 μM (10A); or both FeSO4 (3 μM) and H2O2 (100 μM) (10B). The results shown are the mean±SEM of three independent experiments in quadruplicate.
Cultured cortical neurons in 96-well plates were treated with different concentrations of FeSO4, or hydrogen peroxide and FeSO4, for 24 h at 37° C. Following exposure to various insults, the cells were treated with ATP-γ-S and GDP-β-S as described. Cells were subsequently incubated for a further 18-24 h as indicated before being assessed for viability measures. Neurons were treated with ATP-γ-S and GDP-β-S at three concentrations ([…]) simultaneously with 1.5, 3 or 6 μM FeSO4 for 24 h. Following 24 h incubation in the presence of both FeSO4 and ATP-γ-S and GDP-β-S cell viability measures were assessed by XTT assay. All experiments were performed in triplicate.
FeSO4 induced a concentration-dependent decrease in cell viability as assessed by XTT assay and morphological assessment following 24 h of exposure (FIG. 9). The neuroprotective effect of ATP-γ-S and GDP-β-S (due to iron chelation) was evaluated in cortical neurons exposed to FeSO4 for 24 h (FIG. 10).

[1] = literature; cited from earlier work
primary neurons = assay: Protection of primary neuron culture against Aβ42 insult (trypan blue count); format: cell-based
Method: Primary neuron cells were cultured in 96 wells plate (95×10^4 per well). After 24 h the cells were treated with 50 μM Aβ42 and various concentrations of APCPP-γ-S (0.04-25 μM) for 48 h. Cell viability was measured by dyeing the cells with trypan blue and counts of the vital cells. The results shown are the mean±S.D of three independent experiments in triplicate (*P<0.05, vs. Aβ42 treatment).
Primary neurons cells were cultured in 96 wells plate (95×10^4 per well). […] Cell viability was measured by dyeing the cells with trypan blue and counts the vital cells. The results shown are the mean±S.D of three independent experiments in triplicate (*P<0.05, **P<0.01 vs. Aβ42 treatment).
In this study, the neuroprotective activity of APCPP-γ-S in neuronal cells exposed to toxic Aβ42 was evaluated. At first we measured the number of the viable neuronal cells after treatment with Aβ42 (5-50 μM) (FIG. 11). At 50 μM Aβ42, 50% of the neuronal culture remained vital. Next, we measured the protective effect of APCPP-γ-S: primary neurons were treated with APCPP-γ-S (0.04-25 μM) and 50 μM Aβ42 for 48 h.

TNAP = target: T1, TNAP (Homo sapiens, UniProt P05186); assay: Hydrolysis by TNAP; format: in vitro ADME; conditions: 1 h
T1 sequence (P05186 18-501): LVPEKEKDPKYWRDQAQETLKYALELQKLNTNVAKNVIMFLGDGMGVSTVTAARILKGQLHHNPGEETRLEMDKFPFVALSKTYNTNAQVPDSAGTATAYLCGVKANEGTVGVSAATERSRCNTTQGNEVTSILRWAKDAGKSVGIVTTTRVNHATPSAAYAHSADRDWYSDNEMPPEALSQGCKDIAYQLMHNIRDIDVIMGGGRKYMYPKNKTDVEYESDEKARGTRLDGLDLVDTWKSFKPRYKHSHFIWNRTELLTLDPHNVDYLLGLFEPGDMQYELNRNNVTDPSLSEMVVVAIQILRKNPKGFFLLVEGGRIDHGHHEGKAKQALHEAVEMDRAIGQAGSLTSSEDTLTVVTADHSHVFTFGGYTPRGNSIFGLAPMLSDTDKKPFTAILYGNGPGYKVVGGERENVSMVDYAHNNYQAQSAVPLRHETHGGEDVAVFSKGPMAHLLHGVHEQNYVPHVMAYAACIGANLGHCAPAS
Description: The metabolic stability of APPCCl2P-α-S (isomer A) and APCPP-γ-S was further proven by their resistance to enzymatic hydrolysis by TNAP.

Aβ40-Cu^2+ aggregates = target: T2, Aβ40-Cu^2+ aggregates (Homo sapiens, UniProt P05067); assay: DLS, size reduction of Aβ40-Cu^2+ aggregates; conditions: aggregate alone 1836 nm; 25 μM Aβ40-Cu^2+, pH 6.6
T2 construct: purchased GL-Biochem (Shanghai)
Method: PBS buffer, Aβ40, chelator, Zn(NO3)2, and Cu(NO3)2 solutions were filtered through a […] PVDF syringe filter. 496 μM Aβ40 solution in 10 mM PBS (pH 7.4) and 2 mM Zn(NO3)2 solution were mixed to obtain 200 μM Aβ40-Zn^2+ (1:1 ratio) of a cloudy solution. Similarly, 2 mM Cu(NO3)2 solution was added to 496 μM Aβ40 in 10 mM PBS (pH 6.6). Aβ40-Zn^2+/Cu^2+ (10 μl) solution was transferred to Eppendorf tubes containing 10 mM PBS buffer (64 or 67 μl) followed by the addition of 3 and 6 eq of 2 mM nucleotide (6 or 3 μl) solution and incubation for 45 min at RT. The resulting mixture was incubated for another 30 min at RT and DLS data were then collected in a 70 μl disposable cuvette. The final sample concentrations were 25 μM Aβ40, 25 μM Zn^2+ or Cu^2+, and 150 or 75 μM nucleotide.
Monomeric Aβ40 was incubated with either Cu^2+ or Zn^2+ for 45 min to form a 1:1 peptide metal-ion complex. […] For the Aβ40-Zn^2+ particles the instrument readings indicated a different size distribution. […] We evaluated the capacity of the phosphorothioate analogues to dissolve Aβ40-Cu^2+ or Zn^2+ aggregates, as compared to EDTA and clioquinol known for their ability to dissolve Aβ-M^2+ aggregates (Ritchie et al., 2003; Huang et al., 1997). The reduction of dH of Aβ40-Cu^2+ aggregates by EDTA, clioquinol, or tested compounds was compared to the dH of Aβ-Cu^2+ aggregate itself (FIG. 5A). In addition, the efficacy of the chelators ATP-γ-S, ADP-β-S, APCPP-γ-S and GDP-β-S to resolubilize Aβ40-Cu^2+ and Aβ40-Zn^2+ is described in FIGS. 5B and 5C relative to EDTA and clioquinol. EDTA efficiency in reducing Aβ particle size is considered as 100%.

PC12 cells [2] = assay: Inhibition of Fe(II)-induced ROS formation in PC12 cells (DCFH-DA); format: cell-based; conditions: PC12 cells, FeSO4 0.16 μM, 1 h, DCFH-DA; read-out: IC50 inhibition of ROS formation
Method: In this study, nucleoside 5′-phosphorothioate analogues were explored as inhibitors of Fe(II)-induced oxidative stress in PC12 cells used as a neuronal model. Reduction of ROS production in PC12 cells by each one of the tested analogues was measured by DCFH-DA, a radical sensitive indicator. After DCFH-DA was removed, the tested analogue was added to the cells at a final concentration of 0.2-200 μM. Oxidation was initiated by the addition of FeSO4 (0.16 μM) to the wells. The plates were incubated for 1 h at 37° C., during which the absorbance was read by a Tecan fluorometer at 485/530 nm.

[3] = OH radical inhibition, Fe^2+/H2O2 system, earlier work; cited from earlier work
Aβ40-Zn^2+ aggregates = target: T3, Aβ40-Zn^2+ aggregates (Homo sapiens, UniProt P05067); assay: DLS, re-solubilization of Aβ40-Zn^2+ aggregates; conditions: EDTA = 100%, clioquinol value refers to FIG. 5B, 5C
T3 construct: Monomeric Aβ40 was incubated with either Cu^2+ or Zn^2+; purchased GL-Biochem (Shanghai)

Aβ28-Cu^+ complex = target: T4, Aβ28-Cu^+ complex (Homo sapiens, UniProt P05067); assay: Titration of Aβ28-Cu^+ complex by chelators monitored by 1H-NMR; conditions: 6 eq chelator, 0.8 mM Aβ28-Cu^+, pD 7
T4 construct: we first studied Aβ28, as a more soluble fragment of Aβ40; purchased Sigma-Aldrich

[4] = ESR OH radical assay, Cu^+/H2O2 Fenton system; conditions: N/A = minimal radical production exceeds 10%
[5] = literature; cited from earlier work; remark: listed apart in the source
[6] = ESR OH radical assay, Fe^2+/H2O2 Fenton system; conditions: N/A = minimal radical production exceeds 10%
PC12 cells [7] = assay: Stability of nucleotides in PC12 cells
[8] = Table 2, neuroprotection of primary neurons exposed to FeSO4, read-out: IC50
[9] = co-application of FeSO4 3 μM and H2O2 100 μM, read-out: IC50 neuroprotection
[10] = cortical neurons, FeSO4 3 μM, 24 h, read-out: IC50 neuroprotection

T2 sequence (P05067 672-711 limits assumed): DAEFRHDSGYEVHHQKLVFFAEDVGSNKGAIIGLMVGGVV
T4 sequence (P05067 672-699 limits assumed, one chain of several): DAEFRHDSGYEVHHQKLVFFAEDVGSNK
T3 sequence (P05067 672-711 limits assumed): as the sequence (P05067 672-711 limits assumed) above

SMILES | log K of Cu^2+ complex [1] | IC50 (cortical neurons; [8]) | IC50 (cortical neurons; [9]) | protection (cortical neurons; 24 h) | IC50 (cortical neurons; [10]) | dH (particle size) of Aβ40-Cu^2+ after chelator (Aβ40-Cu^2+ aggregates) | IC50 (PC12 cells [2]) | effect on Aβ28-Cu^+ 1H-NMR spectrum (Aβ28-Cu^+ complex) | other results
Nc1ncnc2c1ncn2[C@@H]1O[C@H](COP(=O)(O)OP(=O)(O)OP(=O)(O)O)[C@@H](O)[C@H]1O [ATP, adenosine triphosphate] | 6.34 |  |  |  |  |  |  |  | IC50 (cortical neurons; Cortical neurone, Table 2, neuroprotection of primary neurons exposed to FeSO4, read-out: IC50): 30000 ± 2100 nM; neuronal cells maintained (primary neurons; at 25 μM, 50 μM Aβ42, 48 h): 45%; Hydrolysis by TNAP (TNAP): 100%
Nc1ncnc2c1ncn2[C@@H]1O[C@H](COP(=O)(O)OP(=O)(O)OP(O)(O)=S)[C@@H](O)[C@H]1O [ATP-γ-S, Adenosine 5′-[γ-thio]-triphosphate] |  | 10 ± 8 nM | 1000 nM | 100% | 10 nM | 110 nm | 180 nM |  | IC50 (cortical neurons; primary cortical neuronal cells, read-out: IC50 protection from damage caused by FeSO4): 10 nM; IC50 (primary neurons; 50 μM Aβ42, 48 h, read-out: concentration that maintained 50% of neuronal cells): 800 nM; IC50 (primary neurons; primary neurons, read-out: IC50 protection from Aβ42 insult): 800 nM; times more active than ATP [3]: 100; times more active than Trolox [3]: 20
Oc1c(I)cc(Cl)c2cccnc12 [Clioquinol, 5-chloro-7-iodoquinolin-8-ol] |  |  |  |  |  | 127 nm |  | slightly sharpened, yet, no signal pattern emerged | efficacy in resolubilizing aggregates relative to EDTA (Aβ40-Zn^2+ aggregates): ca. 75 % of EDTA efficacy
O=C(O)CN(CCN(CC(=O)O)CC(=O)O)CC(=O)O [EDTA, ethylenediamine tetraacetic acid] | 18.8 |  |  |  |  |  |  |  | IC90 [4]: 110 ± 7 µM; log K of Zn^2+ complex [5]: 16.5; IC90 [6]: 98 ± 1 µM
Nc1nc2c(ncn2[C@@H]2O[C@H](COP(=O)(O)OP(O)(O)=S)[C@@H](O)[C@H]2O)c(=O)[nH]1 [GDP-β-S, guanosine 5′-[β-thio]diphosphate] |  | 80 ± 3 nM | 4000 nM | 130% | 8 nM |  | 10000 nM | partial recovery of Aβ28 aromatic signals | fold more stable in PC12 cells than parent nucleotide (GDP, ADP) (PC12 cells [7]): 4.5 fold
